Measurements as given in EP4644389A1, “PRMT5-MTA INHIBITOR” (Suzhou Puhe Biopharma Co., Ltd., priority 2022, dated 2024).
Like-named read-outs stand apart in the source and are kept apart here.

Legend:
[1] = test system: HCT116-MTAPdel; assay: 2D anti-proliferation assay (CTG luminescence), MTAP-deficient HCT116 cells; assay type: cell-based; details: for IC50: Homo sapiens; for HCT116 WT/MTAPdel Selectivity: ratio of IC50 HCT116 WT / MTAPdel
Protocol: (§1) HCT116 wild-type and MTAP-deficient cells were cultured in MCCOYS 5A medium containing 10% FBS and 1% penicillin-streptomycin and incubated in a 37°C, 5% CO2 incubator. A 40 µL cell suspension was added to each well of a 384-well microplate. Using Echo, 40 nL of the compound at different concentrations were added to each well, followed by incubation in a 37°C, 5% CO2 incubator for 7-10 days. 40 µL of CTG solution (Promega, Cat No. G7573) was added to each well and incubated away from light in a 37°C, 5% CO2 incubator for 30 minutes. Luminescence was measured using an Envision multimode plate reader (Perkin Elmer, Catalog No. Envision 2104). The luminescence signal was proportional to the ATP content in the system, and the ATP content directly reflected the number of viable cells in the system.

[2] = test system: HCT116-MTAPwt; assay: 2D anti-proliferation assay (CTG luminescence), wild-type HCT116 cells; assay type: cell-based; details: Homo sapiens, HCT-116, 7-10 days incubation
Protocol: By testing the activity of both of them, the inhibitory effect and selectivity of the molecules of the present invention for PRMT5 at the cellular level were shown.
as §1
ICso value calculation: [formula] • X: Log value of compound concentration • Y: Inhibition rate (%) Table 1: 2D Anti-proliferation Effects of Compounds on HTC116-MTAP del and Wild-type Colorectal Cancer HCT-116 Cell Lines.

[3] = Liver microsomal stability, human; assay type: in vitro ADME; details: human liver microsomes 0.5 mg/mL, compound 1 µM, NADPH 1 mM, 60 minutes
Protocol: Microsomal stability experiment of the compound. The details are as follows: A microsomal stability test was conducted on the compounds of the present invention. The test compounds were co-incubated with liver microsomes from different species, with or without the addition of NADPH. In the test system, the final concentration of the test compound was 1 µM, the final concentration of NADPH was 1 mM, and the final concentration of liver microsomes was 0.5 mg/mL.

[4] = Caco-2 membrane permeability assay; assay type: in vitro ADME; details: human; for efflux ratio: Caco-2, Efflux Ratio = Papp (B-A)/Papp (A-B); for Papp A→B / Papp B→A: Caco-2, apical pH 6.5, basolateral pH 7.4
Protocol: (§2) Evaluation of membrane permeability of the molecules of the present invention. Samples will be analyzed using LC-MS to estimate the apparent permeability coefficient (Papp) of the compound in Caco-2 monolayer cells, wherein the pH of the apical chamber is 6.5, and the pH of the basolateral chamber is 7.4. The P-gp efflux transporter, BCRP, and MRP2 inhibitors (50 µM quinidine, 30 µM benzbromarone, and 20 µM sulfasalazine) can block the active efflux transport of the compound. The data will be used for calculating apparent permeability (Papp). Papp = (VA×⌊drug⌋acceptor)/(Area×Time×⌊drug⌋initial,donor) [formula] wherein, VA is the volume of the receptor well (unit: mL), area is the membrane surface area (for Transwell-96 well permeable support, it is 0.143 cm^2), and time is the total transport time (unit: seconds). Efflux Ratio = Papp (B−A)/Papp (A−B) [formula]

[5] = test system: Caco-2 monolayer cells; assay: Caco-2 membrane permeability assay; assay type: in vitro ADME; details: Caco-2, Efflux Ratio = Papp (B-A)/Papp (A-B)
Protocol: as §2

[6] = HCT-116, HCT116 MTAP-deficient cells, 7-10 days incubation, CTG, read-out: HCT116-MTAPdel/IC50/nM
[7] = HCT-116, read-out: HCT116-MTAPdel/IC50/nM

| SMILES | IC50 [1, 6] [nM] | IC50 [2] [nM] | HCT116 WT/MTAPdel Selectivity [1] | also measured |
| --- | --- | --- | --- | --- |
| Cc1c(CO)c(N)nc2cc(F)c(C(=O)N3C(C)COCC3c3ccc(-c4cncc(F)c4)cn3)cc12 (racemic) [Compound A3] | 5 | 1450 | 291 |  |
| Cc1c(CO)c(N)nc2cc(F)c(C(=O)N3C(C)COCC3c3ccc(-c4cncc(Cl)c4)cn3)cc12 (racemic) [Compound A4] | 7 | 1140 | 164 |  |
| Cc1c(CO)c(N)nc2cc(F)c(C(=O)N3C(C)COCC3c3ccc(OC(F)(F)F)cc3)cc12 (racemic) [Compound A5] | 18 | 1360 | 75 |  |
| Cc1c(CO)c(N)nc2cc(F)c(C(=O)N3C(C)COCC3c3ccc(C(F)(F)F)cc3)cc12 (racemic) [Compound A6] | 7 | 1020 | 145 |  |
| Cc1c(CO)c(N)nc2cc(F)c(C(=O)N3CC(C)CCC3c3ccc4scnc4c3)cc12 (racemic) [Compound A7] | 88 | 3880 | 44 |  |
| Cc1c(CO)c(N)nc2cc(F)c(C(=O)N3CC(C)CCC3c3ccc4ncsc4c3)cc12 (racemic) [Compound A8] | 150 | 2000 | 13 |  |
| Cc1c(CO)c(N)nc2cc(F)c(C(=O)N(C)C3COc4cc(C(F)(F)F)ccc43)cc12 (racemic) [Compound A9] | 27 | 4700 | 174 | CLint scaled at 1 µM [3]: 3.6 mL/min/kg; efflux ratio [4]: 1.2; Papp A→B [4]: 5.1 ×10⁻⁶ cm/s; Papp B→A [4]: 5.9 ×10⁻⁶ cm/s; Efflux [5]: < 2 |
| Cc1c(CO)c(N)nc2cc(F)c(C(=O)N(C)C3COCc4nc(C(F)(F)F)ccc43)cc12 (racemic) [Compound A10] | 18 | > 10000 | >556 | CLint scaled at 1 µM [3]: 11.1 mL/min/kg; efflux ratio [4]: 3.8; Papp A→B [4]: 8.1 ×10⁻⁶ cm/s; Papp B→A [4]: 31 ×10⁻⁶ cm/s |
| Cc1c(CO)c(N)nc2cc(F)c(C(=O)N(C)[C@H]3COCc4nc(-c5cncc(Cl)c5)ccc43)cc12 (racemic) [Compound A11] | 26 | 4380 | 168 |  |
| Cc1c(CO)c(N)nc2cc(F)c(C(=O)N(C)[C@H]3COCc4nc(-c5cncc(F)c5)ccc43)cc12 (racemic) [Compound A12] | 36 | 3250 | 90 |  |
| Cc1c(CO)c(N)nc2cc(F)c(C(=O)N(C)[C@H]3COCc4nc(-c5cncc(C(F)(F)F)c5)ccc43)cc12 (racemic) [Compound A13] | 32 | 3750 | 117 |  |
| CN(C(=O)c1ccc2nc(N)c(C3CC3)cc2c1)C1COc2cc(C(F)(F)F)ccc21 (racemic) [Compound H1] | 4250 | > 10000 | >2 |  |
| CN(C(=O)c1ccc2nc(N)c(C3CC3)cc2c1)C1COc2cc(-c3cnn(C)c3)ccc21 (racemic) [Compound H4] | 4350 | > 10000 | >3 |  |
| Cc1cc2cc(C(=O)N(Cc3ccc(C(F)(F)F)cn3)[C@H](C)c3ncccn3)ccc2nc1N [AM9747, reference compound] |  | 237 |  | IC50 [1, 7]: 7 nM |
| Cc1c(CO)c(N)nc2cc(Cl)c(C(=O)N3[C@@H](C)COC[C@H]3c3ccc(C(F)(F)F)cn3)cc12 [Compound A2a] | 3030 | > 10000 | >3 |  |
| Cc1c(CO)c(N)nc2cc(Cl)c(C(=O)N3[C@H](C)COC[C@@H]3c3ccc(C(F)(F)F)cn3)cc12 [Compound A2b] | 4 | 398 | 100 |  |
| CN(C(=O)c1ccc2nc(N)c(C3CC3)cc2c1)C1COc2cc(OC(F)(F)F)ccc21 (stereo not shown) [Compound H2] | 6290 | > 10000 | >1 |  |
| CN(C(=O)c1ccc2nc(N)c(C3CC3)cc2c1)C1COCc2nc(C(F)(F)F)ccc21 (stereo not shown) [Compound H3] | 926 | > 10000 | >11 |  |
| CN(C(=O)c1ccc2nc(N)c(C3CC3)cc2c1)C1COc2cc(-c3cnn(C(F)(F)F)c3)ccc21 (stereo not shown) [Compound H5] | 2960 | 8020 | 3 |  |
| Cc1c(C2CC2)c(N)nc2cc(F)c(C(=O)N(C)C3COCc4nc(C(F)(F)F)ccc43)cc12 (stereo not shown) [Compound H6] | 33 | 532 | 16 |  |
| Cc1c(C2CC2)c(N)nc2cc(Cl)c(C(=O)N(C)C3COCc4nc(C(F)(F)F)ccc43)cc12 (stereo not shown) [Compound H7] | 29 | 1110 | 38 |  |
| Cc1cc(NC(=O)C(=O)N2C[C@@H](C)CC[C@@H]2c2ccc3scnc3c2)cnc1N [TNG908, reference compound] |  | 1230 | 23 | selectivity ([1]; HCT116 WT vs MTAP-deleted): 23 fold; IC50 [1, 7]: 54 nM |

Continued, in another order:

| IC50 [1, 6] [nM] | IC50 [2] [nM] | SMILES | HCT116 WT/MTAPdel Selectivity [1] | also measured |
| --- | --- | --- | --- | --- |
| 93 | > 10000 | C[C@H]1COC[C@@H](c2ccc(C(F)(F)F)cn2)N1C(=O)c1cc2cc(C3CC3)c(N)nc2cc1F [Compound P2] | >108 |  |
| 2870 | > 10000 | Nc1nc2cc(F)c(C(=O)N3CCOCC3c3ccc(C(F)(F)F)cn3)cc2cc1C1CC1 (stereo not shown) [Compound P3] | >4 |  |
| 790 | > 10000 | C[C@H]1COC[C@@H](c2ccc(C(F)(F)F)cn2)N1C(=O)c1ccc2nc(N)c(C3CC3)cc2c1 [Compound P4] | >13 |  |
| 612 | > 10000 | CC(C)N1CCN(c2ccc([C@@H]3COC[C@H](C)N3C(=O)c3cc4cc(C5CC5)c(N)nc4cc3F)cc2)CC1 [Compound P5] | >16 |  |
| 156 |  | C[C@H]1COC[C@@H](c2ccc(OC(F)(F)F)cc2)N1C(=O)c1cc2cc(C3CC3)c(N)nc2cc1Cl [Compound P6] |  |  |
| 230 | 1640 | Cc1c(C2CC2)c(N)nc2cc(Cl)c(C(=O)N3[C@H](C)COC[C@@H]3c3ccc(C(F)(F)F)cn3)cc12 [Compound P7a] | 7 |  |
| 2540 | 3800 | Cc1c(C2CC2)c(N)nc2cc(Cl)c(C(=O)N3[C@@H](C)COC[C@H]3c3ccc(C(F)(F)F)cn3)cc12 [Compound P7b] | 2 |  |
| 96 | > 10000 | C[C@H]1COC[C@@H](c2ccc(OC(F)F)nn2)N1C(=O)c1cc2cc(C3CC3)c(N)nc2cc1F [Compound P8] | >104 |  |
| 16 | 936 | Cc1c(C2CC2)c(N)nc2cc(F)c(C(=O)N3[C@@H](C)COC[C@H]3c3ccc(-c4cncc(Cl)c4)cn3)cc12 [Compound P9] | 59 |  |
| 34 | 1860 | Cc1c(C2CC2)c(N)nc2cc(F)c(C(=O)N3[C@@H](C)COC[C@H]3c3ccc(-c4cncc(C(F)(F)F)c4)cn3)cc12 [Compound P10] | 55 |  |
| 17 | 72 | CC(=O)N1CCC(Nc2cc(C(=O)NC[C@H](O)CN3CCc4ccccc4C3)ncn2)CC1 [GSK3326595, reference compound] | 4 |  |
